Reference: patent publication US12268674B2, “Mi-2β inhibitor as an immunotherapy agent” (BioVentures, LLC, priority 2021, dated 2025)

What was measured:
Assay in all cases: ATPase profile (ATP acyl phosphate probe)
Format in all cases: binding
[1] = molecular target: T1, ABCD4 (Homo sapiens, UniProt O14678); details: ABCD4, SEQ ID NO: 14, ATP BS
T1 construct: to get the native cell lysate; host or cells: A375 cell lysate

[2] = molecular target: T2, CCT5 (Homo sapiens, UniProt P48643); details: CCT5, SEQ ID NO: 54, ATP BS
T2 construct: to get the native cell lysate; host or cells: A375 cell lysate

[3] = molecular target: T3, CNP (Homo sapiens, UniProt P09543); details: SEQ ID NO: 61, ATP BS
T3 construct: endogenous in cells; host or cells: A375 cell lysate
T3 sequence (P09543 whole entry): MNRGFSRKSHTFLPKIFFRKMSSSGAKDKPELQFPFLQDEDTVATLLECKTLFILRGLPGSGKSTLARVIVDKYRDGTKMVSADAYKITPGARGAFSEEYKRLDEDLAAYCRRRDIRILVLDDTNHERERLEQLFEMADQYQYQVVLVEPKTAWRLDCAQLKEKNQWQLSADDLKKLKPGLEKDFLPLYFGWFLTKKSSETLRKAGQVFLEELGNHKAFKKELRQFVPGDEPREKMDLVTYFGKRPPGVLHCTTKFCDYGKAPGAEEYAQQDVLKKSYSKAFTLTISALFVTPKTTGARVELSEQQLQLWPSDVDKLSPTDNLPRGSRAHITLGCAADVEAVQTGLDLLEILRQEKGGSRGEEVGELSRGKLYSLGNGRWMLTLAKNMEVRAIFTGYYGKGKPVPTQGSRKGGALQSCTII

[4] = molecular target: T4, DDX39 (Homo sapiens, UniProt O00148); details: DDX39, SEQ ID NO: 69, ATP BS
T4 construct: endogenous in cells; host or cells: A375 cell lysate

[5] = molecular target: T5, DDX3X (Homo sapiens, UniProt O00571); details: SEQ ID NO: 70, ATP BS
T5 construct: endogenous in cells; host or cells: A375 cell lysate

[6] = molecular target: T6, DHX15 (Homo sapiens, UniProt O43143); details: DHX15, SEQ ID NO: 72, ATP BS
T6 construct: endogenous in cells; host or cells: A375 cell lysate

[7] = molecular target: T7, ENPP1 (Homo sapiens, UniProt P22413); details: ENPP1, SEQ ID NO: 76, ATP BS
T7 construct: endogenous in cells; host or cells: A375 cell lysate

[8] = molecular target: T8, GARS (Homo sapiens, UniProt P41250); details: SEQ ID NO: 79, ATP BS
T8 construct: endogenous in cells; host or cells: A375 cell lysate
T8 sequence (P41250 37-739): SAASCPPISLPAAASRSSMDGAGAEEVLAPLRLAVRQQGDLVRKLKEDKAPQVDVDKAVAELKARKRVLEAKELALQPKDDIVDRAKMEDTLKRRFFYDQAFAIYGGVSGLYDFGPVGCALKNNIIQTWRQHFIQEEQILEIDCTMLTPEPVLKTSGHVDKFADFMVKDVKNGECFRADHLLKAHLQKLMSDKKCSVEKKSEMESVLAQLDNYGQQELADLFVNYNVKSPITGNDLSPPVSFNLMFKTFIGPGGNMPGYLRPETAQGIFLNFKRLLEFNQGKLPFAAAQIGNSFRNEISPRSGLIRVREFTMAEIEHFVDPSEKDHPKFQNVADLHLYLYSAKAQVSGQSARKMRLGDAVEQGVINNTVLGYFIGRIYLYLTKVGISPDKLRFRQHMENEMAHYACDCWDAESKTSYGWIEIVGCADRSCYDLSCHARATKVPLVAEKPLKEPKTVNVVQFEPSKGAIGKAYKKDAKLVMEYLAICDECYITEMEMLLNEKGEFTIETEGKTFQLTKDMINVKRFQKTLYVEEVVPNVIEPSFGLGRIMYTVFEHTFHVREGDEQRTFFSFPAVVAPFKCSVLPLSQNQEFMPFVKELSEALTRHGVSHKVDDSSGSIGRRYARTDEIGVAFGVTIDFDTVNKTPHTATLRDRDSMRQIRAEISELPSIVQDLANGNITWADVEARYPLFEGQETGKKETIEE

[9] = molecular target: T9, GART (Homo sapiens, UniProt P22102)
T9 construct: endogenous in cells; host or cells: A375 cell lysate
T9 sequence (P22102 1-1010): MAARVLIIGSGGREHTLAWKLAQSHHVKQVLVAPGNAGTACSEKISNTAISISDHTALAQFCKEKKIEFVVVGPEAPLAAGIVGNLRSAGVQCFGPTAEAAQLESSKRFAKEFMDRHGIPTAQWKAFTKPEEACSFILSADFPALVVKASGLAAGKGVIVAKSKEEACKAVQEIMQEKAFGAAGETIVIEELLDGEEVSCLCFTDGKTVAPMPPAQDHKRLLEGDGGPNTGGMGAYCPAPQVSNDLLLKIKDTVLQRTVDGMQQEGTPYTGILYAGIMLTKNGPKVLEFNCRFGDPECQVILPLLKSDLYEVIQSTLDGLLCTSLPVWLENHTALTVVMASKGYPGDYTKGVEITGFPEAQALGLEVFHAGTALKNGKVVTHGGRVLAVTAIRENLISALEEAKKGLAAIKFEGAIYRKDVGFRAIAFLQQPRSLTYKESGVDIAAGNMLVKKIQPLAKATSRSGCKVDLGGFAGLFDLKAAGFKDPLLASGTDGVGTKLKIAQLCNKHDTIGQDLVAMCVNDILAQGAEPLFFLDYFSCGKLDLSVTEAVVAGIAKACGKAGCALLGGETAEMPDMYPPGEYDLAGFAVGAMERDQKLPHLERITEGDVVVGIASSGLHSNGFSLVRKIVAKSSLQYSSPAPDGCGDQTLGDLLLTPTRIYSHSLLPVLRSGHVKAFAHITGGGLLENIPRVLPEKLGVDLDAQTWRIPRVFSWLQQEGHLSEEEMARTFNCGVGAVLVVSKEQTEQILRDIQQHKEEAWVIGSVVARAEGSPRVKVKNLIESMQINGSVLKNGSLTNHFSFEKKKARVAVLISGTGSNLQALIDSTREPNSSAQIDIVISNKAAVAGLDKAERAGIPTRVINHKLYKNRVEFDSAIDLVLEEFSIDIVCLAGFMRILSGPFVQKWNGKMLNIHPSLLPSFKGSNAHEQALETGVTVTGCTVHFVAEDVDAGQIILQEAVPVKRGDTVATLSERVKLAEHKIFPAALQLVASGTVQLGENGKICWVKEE

[10] = test system: HSP90AA, HSP90AA2, HSP90AB1; details: HSP90AA2, HSP90AB1, SEQ ID NO: 96, ATP BS
[11] = molecular target: T10, HSP90AB1 (Homo sapiens, UniProt P08238); details: HSP90AB1, SEQ ID NO: 97, ATP BS
T10 construct: to get the native cell lysate; endogenous in cells; host or cells: A375

[12] = molecular target: T11, ME2 (Homo sapiens, UniProt P23368)
T11 construct: to get the native cell lysate; endogenous in cells; host or cells: A375
T11 sequence (P23368 19-584): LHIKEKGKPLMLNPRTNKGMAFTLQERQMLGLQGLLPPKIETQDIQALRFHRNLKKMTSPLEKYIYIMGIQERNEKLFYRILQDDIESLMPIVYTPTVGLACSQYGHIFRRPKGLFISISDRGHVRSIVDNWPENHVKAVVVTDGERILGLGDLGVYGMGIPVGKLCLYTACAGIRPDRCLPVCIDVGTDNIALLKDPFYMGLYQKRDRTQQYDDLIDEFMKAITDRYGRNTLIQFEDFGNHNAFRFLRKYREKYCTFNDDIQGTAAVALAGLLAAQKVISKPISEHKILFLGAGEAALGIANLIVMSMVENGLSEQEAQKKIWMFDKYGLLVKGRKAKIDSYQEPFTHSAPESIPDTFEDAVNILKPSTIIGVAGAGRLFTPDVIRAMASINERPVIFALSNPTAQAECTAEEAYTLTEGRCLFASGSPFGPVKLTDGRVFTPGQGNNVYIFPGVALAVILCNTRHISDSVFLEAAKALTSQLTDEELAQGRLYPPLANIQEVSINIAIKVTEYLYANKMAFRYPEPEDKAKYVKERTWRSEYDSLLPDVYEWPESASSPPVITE

[13] = molecular target: T12, NUDT2 (Homo sapiens, UniProt P50583)
T12 construct: to get the native cell lysate; endogenous in cells; host or cells: A375
T12 sequence (P50583 whole entry): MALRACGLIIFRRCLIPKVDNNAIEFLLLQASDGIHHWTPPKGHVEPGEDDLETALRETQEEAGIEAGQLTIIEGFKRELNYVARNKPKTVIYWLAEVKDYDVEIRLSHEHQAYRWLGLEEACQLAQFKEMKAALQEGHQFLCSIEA

[14] = molecular target: T13, PEX1 (Homo sapiens, UniProt O43933); details: PEX1, SEQ ID NO: 156, ATP BS
T13 construct: to get the native cell lysate; endogenous in cells; host or cells: A375 cell lysate

[15] = molecular target: T14, SUCLA2 (Homo sapiens, UniProt Q9P2R7)
T14 construct: to get the native cell lysate; endogenous in cells; host or cells: A375 cell lysate
T14 sequence (Q9P2R7 53-463): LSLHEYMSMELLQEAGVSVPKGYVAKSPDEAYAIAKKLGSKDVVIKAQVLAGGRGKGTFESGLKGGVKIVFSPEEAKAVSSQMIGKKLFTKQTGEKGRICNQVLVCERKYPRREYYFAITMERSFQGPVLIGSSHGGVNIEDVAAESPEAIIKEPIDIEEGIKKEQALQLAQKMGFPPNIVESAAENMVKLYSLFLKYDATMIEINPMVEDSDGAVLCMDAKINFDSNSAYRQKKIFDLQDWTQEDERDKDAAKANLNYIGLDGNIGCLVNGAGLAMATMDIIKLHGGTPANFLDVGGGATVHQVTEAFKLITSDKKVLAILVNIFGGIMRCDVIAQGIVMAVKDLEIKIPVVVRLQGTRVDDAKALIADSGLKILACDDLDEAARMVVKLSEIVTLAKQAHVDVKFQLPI
T14 sequence (P53597 41-346 partner): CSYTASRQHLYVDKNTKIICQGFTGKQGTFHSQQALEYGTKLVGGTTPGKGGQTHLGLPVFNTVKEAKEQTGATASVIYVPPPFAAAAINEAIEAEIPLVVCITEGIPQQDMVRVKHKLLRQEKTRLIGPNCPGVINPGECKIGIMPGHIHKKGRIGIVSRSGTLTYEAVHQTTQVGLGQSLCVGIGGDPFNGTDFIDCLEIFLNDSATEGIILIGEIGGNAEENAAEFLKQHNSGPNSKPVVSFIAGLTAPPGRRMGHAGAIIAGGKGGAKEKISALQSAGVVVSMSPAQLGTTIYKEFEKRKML

[16] = molecular target: T15, TRMU (Homo sapiens, UniProt O75648)
T15 construct: to get the native cell lysate; endogenous in cells; host or cells: A375 cell lysate
T15 sequence (O75648 whole entry): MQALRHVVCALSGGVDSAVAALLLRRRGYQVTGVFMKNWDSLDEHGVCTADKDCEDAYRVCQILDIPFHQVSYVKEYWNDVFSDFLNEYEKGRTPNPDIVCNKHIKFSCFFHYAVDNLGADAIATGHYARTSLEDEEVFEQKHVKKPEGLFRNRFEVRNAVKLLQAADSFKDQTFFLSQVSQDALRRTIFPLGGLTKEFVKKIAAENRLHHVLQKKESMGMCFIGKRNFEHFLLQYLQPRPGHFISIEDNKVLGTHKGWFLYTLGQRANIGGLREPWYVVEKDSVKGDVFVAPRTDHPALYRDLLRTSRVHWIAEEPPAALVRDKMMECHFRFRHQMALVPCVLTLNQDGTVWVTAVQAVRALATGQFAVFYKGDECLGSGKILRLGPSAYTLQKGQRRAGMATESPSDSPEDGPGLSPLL

[17] = molecular target: T16, UBA3 (Homo sapiens, UniProt Q8TBC4); details: UBA3, SEQ ID NO: 220, ATP BS
T16 construct: to get the native cell lysate; endogenous in cells; host or cells: A375 cell lysate

[18] = molecular target: T17, UPF1 (Homo sapiens, UniProt Q92900)
T17 construct: to get the native cell lysate; endogenous in cells; host or cells: A375 cell lysate
T17 sequence (Q92900 whole entry): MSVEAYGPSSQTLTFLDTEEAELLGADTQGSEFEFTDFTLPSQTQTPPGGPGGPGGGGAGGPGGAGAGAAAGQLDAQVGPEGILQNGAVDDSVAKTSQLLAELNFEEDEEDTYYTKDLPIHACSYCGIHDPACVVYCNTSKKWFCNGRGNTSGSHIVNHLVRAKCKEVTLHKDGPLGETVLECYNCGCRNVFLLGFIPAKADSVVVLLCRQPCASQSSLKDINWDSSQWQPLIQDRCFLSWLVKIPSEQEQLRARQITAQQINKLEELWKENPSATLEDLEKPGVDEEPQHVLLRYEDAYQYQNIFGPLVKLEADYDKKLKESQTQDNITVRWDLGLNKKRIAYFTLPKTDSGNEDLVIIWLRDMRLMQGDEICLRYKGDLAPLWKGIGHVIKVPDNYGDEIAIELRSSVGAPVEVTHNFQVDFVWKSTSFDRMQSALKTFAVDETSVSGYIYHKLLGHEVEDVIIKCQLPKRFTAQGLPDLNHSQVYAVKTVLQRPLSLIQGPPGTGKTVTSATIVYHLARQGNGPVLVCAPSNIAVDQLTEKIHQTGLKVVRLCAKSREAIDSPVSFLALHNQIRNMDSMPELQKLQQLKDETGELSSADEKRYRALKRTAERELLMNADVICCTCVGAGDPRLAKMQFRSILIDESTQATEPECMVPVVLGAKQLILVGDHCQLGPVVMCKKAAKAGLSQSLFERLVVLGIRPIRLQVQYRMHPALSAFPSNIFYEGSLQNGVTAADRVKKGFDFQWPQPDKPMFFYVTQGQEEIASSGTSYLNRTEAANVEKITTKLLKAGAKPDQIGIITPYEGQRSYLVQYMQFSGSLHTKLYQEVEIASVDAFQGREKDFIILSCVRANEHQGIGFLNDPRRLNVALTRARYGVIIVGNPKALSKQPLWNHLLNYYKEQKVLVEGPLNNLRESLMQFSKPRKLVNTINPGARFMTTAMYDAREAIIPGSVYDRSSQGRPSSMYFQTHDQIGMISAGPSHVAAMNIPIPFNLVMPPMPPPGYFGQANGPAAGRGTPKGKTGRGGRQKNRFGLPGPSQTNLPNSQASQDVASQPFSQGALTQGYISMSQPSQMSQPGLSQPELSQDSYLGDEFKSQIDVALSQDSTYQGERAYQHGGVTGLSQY

[19] = molecular target: T18, XRCC3 (Homo sapiens, UniProt O43542); details: XRCC3, SEQ ID NO: 230, ATP BS
T18 construct: to get the native cell lysate; endogenous in cells; host or cells: A375 cell lysate
T18 sequence (O43542 whole entry): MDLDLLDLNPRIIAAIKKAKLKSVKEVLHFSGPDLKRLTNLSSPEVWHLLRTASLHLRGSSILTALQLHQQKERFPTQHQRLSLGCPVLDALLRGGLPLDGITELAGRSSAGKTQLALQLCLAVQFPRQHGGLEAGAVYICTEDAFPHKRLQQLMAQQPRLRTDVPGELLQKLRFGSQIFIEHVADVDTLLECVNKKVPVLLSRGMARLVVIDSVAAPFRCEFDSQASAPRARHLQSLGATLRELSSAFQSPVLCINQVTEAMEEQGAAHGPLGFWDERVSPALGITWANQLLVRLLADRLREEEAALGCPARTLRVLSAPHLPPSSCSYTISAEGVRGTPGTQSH
T18 sequence (O43502 whole entry partner): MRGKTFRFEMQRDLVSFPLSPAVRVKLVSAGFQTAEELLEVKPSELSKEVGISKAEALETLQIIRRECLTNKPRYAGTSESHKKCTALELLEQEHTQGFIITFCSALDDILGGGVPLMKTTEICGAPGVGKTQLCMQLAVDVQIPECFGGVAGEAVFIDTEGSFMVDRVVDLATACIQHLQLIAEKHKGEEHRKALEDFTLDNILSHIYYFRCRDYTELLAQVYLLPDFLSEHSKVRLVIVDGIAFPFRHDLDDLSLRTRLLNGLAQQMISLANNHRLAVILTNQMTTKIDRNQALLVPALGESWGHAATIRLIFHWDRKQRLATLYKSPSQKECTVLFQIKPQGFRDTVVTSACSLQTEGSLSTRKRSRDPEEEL

[20] = molecular target: T19, XRCC6 (Homo sapiens, UniProt P12956); details: XRCC6, SEQ ID NO: 232, ATP BS
T19 construct: to get the native cell lysate; endogenous in cells; host or cells: A375 cell lysate

Cn1c(=O)[nH]c2ccc(-c3cccc(C(=O)NC4CCn5ccnc5C4)c3)cc21 (stereo not drawn) [Z36-MP5, 3-(3-methyl-2-oxo-2,3-dihydro-1H-benzo[d]imidazol-5-yl)-N-(5,6,7,8-tetrahydroimidazo[1,2-a]pyridin-7-yl)benzamide]
Inhibition (%) by 1 μM Z36-MP5 [1]: 11.24%
Inhibition (%) by 1 μM Z36-MP5 [2]: −2.48%
Inhibition (%) by 1 μM Z36-MP5 [3]: −17.28%
Inhibition (%) by 1 μM Z36-MP5 [4]: −8.90%
Inhibition (%) by 1 μM Z36-MP5 [5]: 11.22%
Inhibition (%) by 1 μM Z36-MP5 [6]: −5.22%
Inhibition (%) by 1 μM Z36-MP5 [7]: 8.04%
Inhibition (%) by 1 μM Z36-MP5 [8]: 16.66%
Inhibition (%) by 1 μM Z36-MP5 ([9]; SEQ ID NO: 80, ATP BS): −8.85%
Inhibition (%) by 1 μM Z36-MP5 ([9]; SEQ ID NO: 81, ATP BS): −7.56%
Inhibition (%) by 1 μM Z36-MP5 ([9]; SEQ ID NO: 82, ATP BS): −2.13%
Inhibition (%) by 1 μM Z36-MP5 [10]: −5.50%
Inhibition (%) by 1 μM Z36-MP5 [11]: −3.22%
Inhibition (%) by 1 μM Z36-MP5 ([12]; ME2, SEQ ID NO: 122, ATP BS): −6.47%
Inhibition (%) by 1 μM Z36-MP5 ([12]; ME2, SEQ ID NO: 123, ATP BS): −16.71%
Inhibition (%) by 1 μM Z36-MP5 ([13]; NUDT2, SEQ ID NO: 145, ATP BS): 19.18%
Inhibition (%) by 1 μM Z36-MP5 ([13]; NUDT2, SEQ ID NO: 146, ATP BS): 11.64%
Inhibition (%) by 1 μM Z36-MP5 [14]: −4.27%
Inhibition (%) by 1 μM Z36-MP5 ([15]; SUCLA2, SEQ ID NO: 198, ATP BS): −0.65%
Inhibition (%) by 1 μM Z36-MP5 ([15]; SUCLA2, SEQ ID NO: 199, ATP BS): 9.97%
Inhibition (%) by 1 μM Z36-MP5 ([16]; SEQ ID NO: 211, ATP BS): −13.98%
Inhibition (%) by 1 μM Z36-MP5 ([16]; SEQ ID NO: 212, ATP BS): −2.57%
Inhibition (%) by 1 μM Z36-MP5 [17]: −11.62%
Inhibition (%) by 1 μM Z36-MP5 ([18]; UPF1, SEQ ID NO: 223, ATP BS): −1.93%
Inhibition (%) by 1 μM Z36-MP5 ([18]; UPF1, SEQ ID NO: 224, ATP BS): −3.51%
Inhibition (%) by 1 μM Z36-MP5 [19]: −4.81%
Inhibition (%) by 1 μM Z36-MP5 [20]: 10.61%
